According to US20250345318A1, “COMPOUND AND USE THEREOF IN PREVENTING OR TREATING RADIATION DAMAGE” (SIMCERE PHARMACEUTICAL CO., LTD., priority 2022, published 2025):

How the values were obtained:
C57BL/6 male mice [1] = test: Body weight after abdominal X-ray irradiation 12 Gy (Example 9); type: in vivo; conditions: JAC4 100 mg/kg oral + abdominal X-ray 12 Gy
Protocol: CS7BL/6 male mice aged 10 weeks were divided into 3 groups, i.e., a vehicle control group, a vehicle+radiation group, and a JAC4+radiation group 8 days after radiation, with 6 mice in each group. JAC4 (100 mg/kg) or an equal volume of vehicle (polyethylene glycol:ethanol:physiological saline=47.5:7.5:50, v/v/v) was orally administered to the mice once daily for 7 days. After that, the mice were subjected to abdominal X-ray irradiation (12 Gy) and the JAC4 or vehicle treatment was continued for 4 days. The body weights of the mice before and after […] X-ray irradiation were recorded daily, and body weight curves were plotted.

C57BL/6 male mice [2] = test: Lengths of small intestine and colon, acute radiation enteritis (Example 11); type: in vivo; conditions: JAC4 100 mg/kg oral + abdominal X-ray 12 Gy
Protocol: C57BL/6 male mice (27.6±1.9 g in body weight) aged 10 weeks were divided into 3 groups of 6 mice each. JAC4 (100 mg/kg) or an equal volume of vehicle (polyethylene glycol:ethanol:physiological saline=40:7.5:52.5, v/v/v) was orally administered to the mice once daily for 7 consecutive days. After that, the mice were subjected to abdominal X-ray irradiation (12 Gy) and JAC4 or vehicle treatment was continued. After 4 days, blood samples and small intestine were collected.
The small intestine epithelial mucosal barrier is located at the interface between luminal micro-organisms and the mucosal immune system, and can maintain the intestinal mucosal barrier homeostasis. The integrity of the small intestine mucosal barrier is determined by a number of factors, including the tight junction proteins, proteins in other cell junction complexes, and the like. JAC4 has a protective effect on the small intestine mucosal barrier. The disruption of the small intestine mucosal barrier may lead to radiation enteritis and a reduction in the length of small intestine due to the inflammatory edema.

JWA^IEC-wt mice = test: X-ray-induced intestinal injury in JWA^IEC-wt mice (Example 12); type: in vivo; conditions: ABI 10 Gy
Description: The Model Animal Research Institute of Nanjing University was commissioned to conduct the construction of JWA^flox/+ A129 mice and embryo cryopreservation, preservation, and thawing. These mice were bred with wild-type C57/BL6 mice for over six generations to give mice of C57/BL6 background. Villin-cre mice, provided by Shanghai Model Organisms Center, Inc., were C57/BL6 mice. The JWA-knockout mice (JWA^ko) and their littermate control (JWA^wt) counterparts were derived from an in-house conservation breed. The JWA^flox/flox mice were bred from the JWA^flox/+ mice. The intestinal epithelial JWA-knockout mice (JWA^IEC-ko) and control group (JWA^IEC-wt) were obtained through breeding JWA^flex/flex mice with Villin-cre mice.
The off-target model was established using JWA^IEC-ko mice and their JWA^IEC-wt littermates (8 weeks old), and the mice receiving radiation were divided into 4 groups: (1) a JWA^IEC-wt mice+vehicle group (n=5); (2) a JWA^IEC-wt mice+JAC4 group (n=5); (3) a JWA^IEC-ko mice+vehicle group (n=6); (4) a JWA^IEC-ko mice+JAC4 group (n=5). All mice were subjected to abdominal irradiation at 10 Gy. 7 days before radiation, 10 mg/kg JAC4 or an equal volume of vehicle (polyethylene glycol:ethanol:physiological saline=40:7.5:52.5, v/v/v) was administered intragastrically daily until the end of modeling. The blank control group (wild type, n=6) was not irradiated, and the modeling was terminated on day 4 after radiation.
To verify whether the protective effect of JAC4 on X-ray radiation-induced intestinal damage in mice is dependent on the expression of JWA, the present disclosure verified the targeting effect of JAC4 using JWA^IEC-ko mice.
JWA^IEC-ko and JWA^IEC-wt mice were treated daily with JAC4 (10 mg/kg) or an equal volume of vehicle (polyethylene glycol:ethanol:physiological saline=47.5:7.5:50, v/v/v), respectively, from 7 days before the ABI (10 Gy) exposure to 4 days after the exposure. […] Meanwhile, the contents of TNF-α and IL-1β were consistent with the results of FD4. […] As shown in panels E and F, ABI increased the activity of GSH-Px (530.8±207.8 vs. 406.2±197.9 U/mL) and decreased the activity of CAT (89.4 f 0.4 vs. 68.7±14.2 U/mL). JAC4 further enhanced the antioxidant enzymes in JWA^IEC-wt mice (815.1±203.9 vs. 530.8±207.8 U/mL and 85.9±8.2 vs. 68.7±14.2 U/mL; P<0.05, P<0.05). […] Intestinal tissues were isolated, and the expression of apoptotic molecules was detected by Western blot (FIG. 16J). In wild-type mice, compared with the control group, X-rays increased the expression of Bax and cleaved PARP1 in the small intestine.

BEAS-2B cells = test: Plate colony formation, BEAS-2B (Example 22); type: cell-based, human
Protocol: The cell proliferation capacity was determined by a plate colony formation experiment, with the following specific procedures.
1. SPCA-1 and BEAS-2B cells (or SPCA-1 and BEAS-2B cells transfected with JWA-knockdown plasmids) in the exponential growth phase were plated in 6-well plates at a specific amount. The number of plated cells is as follows
2. After the cells adhered to the container wall, the cells were treated (or not treated) with […] JAC4 and treated with X-ray of 0, 2, 4, or 6 Gy. The medium was replaced with a fresh medium containing JAC4 at the corresponding concentration once every 2 days (or the cells were treated with X-ray of 0, 2, 4, or 6 Gy after adhesion, and the medium was replaced with a fresh medium once every 2 days).
3. After the cells were cultured for 10-14 days, colonies were visually observed. The culture medium was discarded, and the cells were fixed with methanol for 10-20 min, stained with crystal violet for 10 min, slowly washed with flowing clear water thrice, photographed, and counted for colonies containing>50 cells.
4. The colony forming efficiency (CFE)=(number of colonies formed/number of seeded cells) 100% was calculated, and the cell survival fraction (SF)=(colony forming efficiency of treatment group/colony forming efficiency of 0 Gy group)×100% was calculated from the colony forming efficiency.

[3] = JWA^IEC-wt mice, JAC4 10 mg/kg daily

c1ccc(CSc2nnc(C3COc4ccccc4O3)o2)nc1 (centres unmarked) [JAC4]
body weight curve (C57BL/6 male mice [1]): consistently above that of the vehicle+radiation group
small intestine length (C57BL/6 male mice [2]; 4 days after): 34.83±1.44 cm
length of the colon (C57BL/6 male mice [2]; among the groups): no statistically significant differences
plasma CAT activity (JWA^IEC-wt mice; [3]): 85.9±8.2 U/mL
plasma GSH-Px activity (JWA^IEC-wt mice; [3]): 815.1±203.9 U/mL
plasma IL-1β (JWA^IEC-wt mice; [3]): 57.76 ± 5.9 ng/mL
plasma TNF-α (JWA^IEC-wt mice; [3]): 583.2 ± 78.2 ng/mL
plasma FD4 content (JWA^IEC-wt mice; JWA^IEC-wt mice, JAC4 10 mg/kg daily, day 4): 6719.9 ± 1823.5 ng/mL
expression of Bax and cleaved PARP1 in small intestine (Western blot) (JWA^IEC-wt mice; wild-type mice, JAC4 10 mg/kg): downregulated
cell survival (radiosensitization curve) (BEAS-2B cells; 10 μM JAC4 + X-ray vs X-ray monotherapy): slightly increased
number of colonies formed (BEAS-2B cells; JAC4 in combination with X-ray): increased
